Experimental findings from patent publication US4000147A, “Anhydro-2-mercapto-1,3,4-thiadiazolium hydroxides” (BASF Aktiengesellschaft, priority 1974, dated 1976) are described below.

Like-named read-outs stand apart in the source and are kept apart here. Bounds are passed on as bounds.

The subject of series [1] is clonic cramps caused by Pentetrazol. The experiment in a line: anti-convulsive action against clonic spasms caused by Pentetrazol (60 mg/kg s.c.), inclined screen (Table 2). The series is classed as in vivo, female Swiss mice. The note with it: Mus musculus, mice, oral, 30 minutes before s.c. 60 mg/kg Pentetrazol. As for the experimental part:
As a pharmacological test of the anti-convulsive action against clonic spasms caused by Pentetrazol, the test substances were administered orally to groups of from 8 to 10 female Swiss mice weighing from 20 to 25 g, 30 minutes before subcutaneous administration of 60 mg/kg of Pentetrazol.
In the untreated animals, this dose of Pentetrazol caused clonic cramps, as a result of which the mice slid off an inclined screen.
Anti-convulsive agents prevent the cramps and the sliding off the screen, the degree of prevention depending on the dose. The ED50 was taken to be the dose after administration of which 50% of the treated animals remained on the screen.
^1) Action against clonic cramps caused by Pentetrazol in mice. Oral
administration 30 minutes before subcutaneous administration of 60 mg/kg

Series [2] can be described thus: acute toxicity, intraperitoneal (Table 2). The note with it: mouse, in vivo, ip, mice, approximate values. The source says:
^2) Mice. Intraperitoneal administration. Approximate values

For series [3], the system named is maximum Pentetrazol-induced extension. Nature of the series: maximum tonic extension spasm after subcutaneous administration of 121 mg/kg of Pentetrazol (Table 3). The series is classed as in vivo, mice. Conditions: for ED50: Mus musculus, read-out: Maximum Pentetrazol-induced extension, ED50.
For series [4], the system named is minimum Pentetrazol-induced cramp. The experiment in a line: minimum clonic cramp after subcutaneous administration of 70 mg/kg of Pentetrazol (Table 3). Format: in vivo, mice. Conditions: for ED50: Mus musculus, 0.75 h, read-out: Minimum Pentetrazol-induced cramp, ED50.
Series [5] concerns maximum electric shock. The experiment in a line: maximum tonic electro-induced cramp (Table 3). Conditions: for ED50: Mus musculus, read-out: Maximum electric shock, ED50. The series is classed as in vivo, mice.
The nature of series [6]: in vivo. Conditions: for LD50: mouse, in vivo. As for the experimental part:
The comparative experiments in Table 3 were carried out with anhydro-2-mercapto-4-methyl-5-(3'-chlorophenyl)-1,3,4-thiadiazolium hydroxide, referred to as substance A in the Table and in the subsequent text.

The mark [7] stands for this setting: mice, oral, 121 mg/kg Pentetrazol s.c.
Where [8] appears, read: mice, oral, 70 mg/kg Pentetrazol s.c., observed 45 minutes after Pentetrazol.
Setting [9] is: mice, oral, tonic cramps induced by electric shock.

The term ED50 denotes the dose that gives a 50% effect, or the effect in half of the subjects. One may read the LD50 as the dose at which mortality reaches 50%. Read a low LD50 as greater toxicity. Turning to `C[n+]1nc([S-])sc1-c1cccc(F)c1`, in series [1], the ED50 turned out to be 2.2 mg/kg. In series [2], this molecule registered an LD50 of 1000 mg/kg.
In the case of `C[n+]1nc([S-])sc1-c1ccc(F)cc1`, the ED50 in series [1] amounted to 2.2 mg/kg. Also, the LD50 in series [2] is more than 1000 mg/kg.
For `C[n+]1nc([S-])sc1-c1cccc(C(F)(F)F)c1` the same measures were 0.46 mg/kg and 681 mg/kg.
For the molecule `O=C1NC(=O)C(c2ccccc2)(c2ccccc2)N1` [Phenytoin], the ED50 in series [3] (setting [7]) turned out to be 22 mg/kg; in series [5] (setting [9]), 8 mg/kg. In addition, the “activity against clonic spasms induced by Pentetrazol” value in series [4] (in words) was “inactive”. Moreover, the “Minimum Pentetrazol-induced cramp, ED50” value in series [4] (setting [8]) was “inactive”.
As to `C[n+]1nc([S-])sc1-c1cccc(Cl)c1` [Substance A, anhydro-2-mercapto-4-methyl-5-(3'-chlorophenyl)-1,3,4-thiadiazolium hydroxide], the results for the ED50 in series [3] (setting [7]), in series [4] (setting [8]) and in series [5] (setting [9]) were 10 mg/kg, 7 mg/kg and 23 mg/kg, respectively. Besides, in series [4] (in words), the “activity in counteracting clonic spasms induced by Pentetrazol, compared with Phenobarbital and Phenytoin” value is “more active in counteracting clonic spasms induced by Pentetrazol than is Phenobarbital and above all than is Phenytoin”. Further, the “toxicity compared with Phenobarbital and Phenytoin” value in series [6] (in words) is “markedly less than that of Phenobarbital and Phenytoin”. The molecule further registered an LD50 in series [6] of more than 1000 mg/kg.
The molecule `CCC[n+]1nc([S-])sc1-c1ccc(Cl)cc1` registered an ED50 in series [1] of 32 mg/kg. The same molecule gave an LD50 in series [2] of 681 mg/kg.
In series [1], `C[n+]1nc([S-])sc1-c1cccc(Cl)c1` [drawing 15] gave an ED50 of 3.2 mg/kg. The LD50 in series [2] is more than 1000 mg/kg.
As to `CN1C(=O)OC(C)(C)C1=O` [Trimethadion], the ED50 in series [3] (setting [7]) was 260 mg/kg; in series [4] (setting [8]) it was 240 mg/kg; in series [5] (setting [9]) it was 450 mg/kg. Also, in series [3] (tonic cramp test), the “times less active than substance A, tonic cramp test” value was “more than 20 times”. Further, in series [4] (clonic cramp test), the “times less active than substance A, clonic cramp test” value is recorded as “more than 20 times”. In series [6], this molecule returned an LD50 of more than 1000 mg/kg.
For `CCC[n+]1nc([S-])sc1-c1ccccc1`, the ED50 in series [1] is 22 mg/kg. This molecule also registered an LD50 in series [2] of 68.1 mg/kg.
Turning to `C[n+]1nc([S-])sc1-c1ccc(Br)cc1`, the ED50 in series [1] came to 46 mg/kg. In addition, the LD50 in series [2] was more than 1000 mg/kg.
`C[n+]1nc([S-])sc1-c1ccccc1F` gave an ED50 in series [1] of 10 mg/kg. In addition, the LD50 in series [2] is more than 1000 mg/kg.
For `CCC1(c2ccccc2)C(=O)NC(=O)NC1=O` [Phenobarbital], the results for the ED50 in series [3] (po), in series [4] (po) and in series [5] (po) were 22 mg/kg, 30 mg/kg and 11 mg/kg, respectively. In addition, the “activity in tonic cramp induced by Pentetrazol, relative to substance A” value in series [3] (in words) is given as “about twice as active”. Also, the “activity in cramp induced by electric shock, relative to substance A” value in series [5] (in words) is recorded as “about twice as active”. This molecule had an LD50 in series [6] of 320 mg/kg.
